# Data published in patent publication US20150368195A1, “INDOLINE COMPOUNDS FOR TREATMENT AND/OR PREVENTION OF INFLAMMATION DISEASES” (Taipei Medical University, priority 2014, published 2015).
# Legend:
# CTGF = assay: pro-fibrogenic mediator-induced CTGF production, Western blot; format: cell-based, human; conditions: WI-38 lung fibroblasts
# Procedure: (§1) Western blot analysis was performed. First, WI-38 lung fibroblasts were incubated with different concentrations of MPT0E028 (0.01, 0.03, 0.1, 0.3, or 1 μM) (FIG. 10A) or MPT0G009 (0.01, 0.03, 0.1, 0.3, or 1 μM) (FIG. 10B) for 30 min before and during incubation for 2 h with TGF-β (10 ng/mL). WI-38 lung fibroblasts were incubated with 1 μM MPT0E028 and MPT0G009 for 30 min and following another incubation for 2 h with 1 U/ml thrombin (FIG. 10C) and 10 nM ET-1 (FIG. 10D). The collagen I production from WI-38 lung fibroblasts stimulated by 10 ng/mL TGF-β for 24 h was inhibited with 1 μM MPT0E028 and MPT0G009 pretreatment (FIG. 10E).
# WI-38 cells, a normal human embryonic lung fibroblast cell line, were obtained from American Type Culture Collection (Manassas, Va.). Cells were grown in MEM nutrient mixture, containing 10% FCS, 2 mM L-glutamine, 0.1 mM NEAA, 1 mM sodium pyruvate, 50 U/ml penicillin G, and 100 μg/ml streptomycin, in a humidified 37° C. incubator with 5% CO2 Cells were used between passages 18 and 30 for all experiments. After reaching confluence, cells were seeded onto 6-cm dishes for immunoblotting.
# Western blot analyses were performed as described previously (Chen B C, Chang Y S, Kang J C, Hsu M J, Sheu J R, Chen T L, et al. Peptidoglycan induces nuclear factor-kappaB activation and cyclooxygenase-2 expression via Ras, Raf-1, and ERK in RAW 264.7 macrophages. J Biol Chem 2004; 279:20889-97). Briefly, WI-38 lung fibroblasts were cultured in 6-cm dishes. After reaching confluence, cells were pretreated with specific inhibitors (E028 and G009) as indicated for 30 min, and then treated with the vehicle (H2O) or 10 ng/ml TGF-β for 2 h (CTGF assay) or 24 h (collagen I assay). Whole-cell lysates ([…]) were subjected to 12% (CTGF) or 8% (collagen I) SDS-PAGE, and transferred onto a polyvinylidene difluoride membrane which was then incubated in TBST buffer (150 mM NaCl, 20 mM Tris-HCl, and 0.02% Tween 20; pH 7.4) containing 5% BSA. Proteins were visualized by specific primary antibodies and then incubated with HRP-conjugated secondary antibodies. The immunoreactivity was detected using enhanced chemiluminescence (ECL) following the manufacturer's instructions. Quantitative data were obtained using a computing densitometer with scientific imaging systems (Kodak, Rochester, N.Y.).
# To determine whether the inhibitory effects of MPT0E028 and MPT0G009 on pro-fibrogenic mediators (TGF-β, thrombin, and ET-1) were related to the modulation of CTGF and Collagen I production, Western blot analysis was performed. First, WI-38 lung fibroblasts were incubated with different concentrations of MPT0E028 (0.01, 0.03, 0.1, 0.3, or 1 μM) (FIG. 10A) or MPT0G009 (0.01, 0.03, 0.1, 0.3, or 1 μM) (FIG. 10B) for 30 min before and during incubation for 2 h with TGF-β (10 ng/mL). […] Furthermore, we examined the effects of MPT0E028 and MPT0G009 on other pro-fibrogenic mediators. As shown in FIGS. 10C and 10D, WI-38 lung fibroblasts were incubated with 1 μM MPT0E028 and MPT0G009 for 30 min and following another incubation for 2 h with 1 U/ml thrombin (FIG. 10C) and 10 nM ET-1 (FIG. 10D).
# collagen I = assay: TGF-β-induced collagen I production, Western blot; format: cell-based, human; conditions: WI-38 lung fibroblasts; 1 μM pretreatment; TGF-β 10 ng/mL 24 h
# Procedure: as §1
# WI-38 cells, a normal human embryonic lung fibroblast cell line, were obtained from American Type Culture Collection (Manassas, Va.). […]
# Western blot analyses were performed as described previously (Chen B C, Chang Y S, Kang J C, Hsu M J, Sheu J R, Chen T L, et al. Peptidoglycan induces nuclear factor-kappaB activation and cyclooxygenase-2 expression via Ras, Raf-1, and ERK in RAW 264.7 macrophages. J Biol Chem 2004; 279:20889-97). […] The immunoreactivity was detected using enhanced chemiluminescence (ECL) following the manufacturer's instructions. Quantitative data were obtained using a computing densitometer with scientific imaging systems (Kodak, Rochester, N.Y.). […]
smiles,measurement,setting,value
O=C(/C=C/c1ccc2c(c1)CCN2S(=O)(=O)c1ccccc1)NO [MPT0E028],ET-1-induced CTGF expression,"CTGF; 1 μM, 10 nM ET-1 2 h",inhibited
same,thrombin-induced CTGF expression,"CTGF; 1 μM, 1 U/ml thrombin 2 h",inhibited
same,TGF-β-induced CTGF production,"CTGF; 0.01-1 μM, TGF-β 10 ng/mL 2 h",significantly inhibited
same,collagen I production,collagen I,inhibited
